Reference: ChEMBL document CHEMBL1201862, “PubChem BioAssay data set” (2004)
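Values below derive from 48-hour exposures of cells grown in 96-well plates, with endpoints linearly interpolated between the two concentrations bracketing the appropriate inhibition level. The concentration for 50% growth inhibition is given as GI50.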 Activity calls are given as the source filed them. No stated cut-off is given here; in the data, active = GI50 up to about 1.1 µM and inactive = higher.

Experiments:
Test in all cases: NCI tumour cell line growth inhibition, 48 h
ACHN = tested on: ACHN
EKVX = tested on: EKVX
HCT-15 = tested on: HCT-15
HL-60 = tested on: HL-60
HOP-92 = tested on: HOP-92
HT-29 = tested on: HT-29
KM12 = tested on: KM12
NCI-H226 = tested on: NCI-H226
NCI-H23 = tested on: NCI-H23
NCI-H460 = tested on: NCI-H460
RPMI-8226 = tested on: RPMI-8226
RXF 393 = tested on: RXF 393
SF-295 = tested on: SF-295
SK-MEL-2 = tested on: SK-MEL-2
SK-OV-3 = tested on: SK-OV-3
SN12C = tested on: SN12C
U-251 = tested on: U-251
UACC-62 = tested on: UACC-62

Row | SMILES | GI50 (ACHN) | GI50 (EKVX) | GI50 (HCT-15) | GI50 (HL-60) | GI50 (HOP-92) | GI50 (HT-29) | GI50 (KM12) | GI50 (NCI-H226) | GI50 (NCI-H23) | GI50 (NCI-H460) | GI50 (RPMI-8226) | GI50 (RXF 393) | GI50 (SF-295) | GI50 (SK-MEL-2) | GI50 (SK-OV-3) | GI50 (SN12C) | GI50 (U-251) | GI50 (UACC-62)
1 | C[N+](C)(C)CC1CCCC(C[N+](C)(C)C)C1O (stereo not given) | > 100 µM (inactive) | > 100 µM (inactive) | > 100 µM | > 100 µM (inactive) | > 100 µM (inactive) | > 100 µM (inactive) | > 100 µM (inactive) | > 100 µM (inactive) | > 100 µM (inactive) | > 100 µM (inactive) | > 100 µM (inactive) | > 100 µM (inactive) | > 100 µM (inactive) | > 100 µM (inactive) | > 100 µM (inactive) | > 100 µM (inactive) | > 100 µM (inactive) | > 100 µM (inactive)
2 | C#CC1(O)CCC2[C@@H]3CCc4cc(Oc5nc(F)nc(-c6c7ccccc7c(SCC)n6CCC)n5)ccc4C3CC[C@@]21C (stereo not given in full) | > 100 µM (inactive) | 59.6 µM (inactive) | > 100 µM | > 100 µM (inactive) | > 100 µM (inactive) | > 100 µM (inactive) | > 100 µM (inactive) | 20.6 µM (inactive) | 25 µM (inactive) | > 100 µM (inactive) | 57.3 µM (inactive) | 21.6 µM (inactive) | 65.8 µM (inactive) | 19.9 µM (inactive) | > 100 µM (inactive) |  | 54.6 µM (inactive) | 89.7 µM (inactive)
3 | CN1C(c2ccccc2)CC(=NO)CC1c1ccccc1 (stereo not given) | 41.4 µM (inactive) | > 100 µM (inactive) | 37.9 µM | 16.4 µM (inactive) | 92.7 µM (inactive) | 35.9 µM (inactive) | 31.6 µM (inactive) | 74 µM (inactive) | 89.1 µM (inactive) | 60 µM (inactive) | 24 µM (inactive) | 62.5 µM (inactive) | 41.5 µM (inactive) | 53.5 µM (inactive) | > 100 µM (inactive) | 24.9 µM (inactive) | 67.6 µM (inactive) | 39.8 µM (inactive)
4 | CN(C)CC1CCCC(CN(C)C)C1OC(=O)c1ccccc1 (stereo not given) | > 100 µM (inactive) | > 100 µM (inactive) | > 100 µM | > 100 µM (inactive) | > 100 µM (inactive) | > 100 µM (inactive) | > 100 µM (inactive) | > 100 µM (inactive) | > 100 µM (inactive) | > 100 µM (inactive) | > 100 µM (inactive) | > 100 µM (inactive) | > 100 µM (inactive) | > 100 µM (inactive) | > 100 µM (inactive) | > 100 µM (inactive) | > 100 µM (inactive) | > 100 µM (inactive)
5 | N#CC1(C#N)C=CC(=C2OCC3CCCN23)C=C1 (stereo not given) | > 100 µM (inactive) |  | > 100 µM | 87.5 µM (inactive) | 96.2 µM (inactive) | > 100 µM (inactive) | > 100 µM (inactive) | > 100 µM (inactive) |  | > 100 µM (inactive) | > 100 µM (inactive) | > 100 µM (inactive) | > 100 µM (inactive) | > 100 µM (inactive) | > 100 µM (inactive) | > 100 µM (inactive) | > 100 µM (inactive) | > 100 µM (inactive)
6 | O=c1oc2cc(O)ccc2c2[nH]c3cc(O)ccc3c12 | 22.7 µM (inactive) | 26.5 µM (inactive) | 27 µM | 21.8 µM (inactive) | 32.1 µM (inactive) | 35.1 µM (inactive) | 20.9 µM (inactive) | 21.4 µM (inactive) | 24.5 µM (inactive) | 33 µM (inactive) | 78 µM (inactive) | 20.6 µM (inactive) | 66.8 µM (inactive) | 19.1 µM (inactive) | 22.2 µM (inactive) | 33.3 µM (inactive) | 21.4 µM (inactive) | 15.5 µM (inactive)
7 | COc1cc2c(cc1OC)C1(c3ccc(Cl)cc3)ON=C(c3ccccc3)N1CS2 (stereo not given) | 91.8 µM (inactive) | > 100 µM (inactive) | > 100 µM | 24.2 µM (inactive) | 44.8 µM (inactive) | 15.5 µM (inactive) | > 100 µM (inactive) | > 100 µM (inactive) | > 100 µM (inactive) | 92 µM (inactive) | 48.1 µM (inactive) | 21.2 µM (inactive) | 95.3 µM (inactive) | > 100 µM (inactive) | > 100 µM (inactive) | 64.7 µM (inactive) | > 100 µM (inactive) | 36 µM (inactive)
8 | COc1ccc2c([nH]c3cc(O)c(C)cc32)c1C=O | > 25 µM (inactive) |  | 14.8 µM | 15.9 µM (inactive) | > 25 µM (inactive) | > 25 µM (inactive) | > 25 µM (inactive) | > 25 µM (inactive) |  | 11.2 µM (inactive) | > 25 µM (inactive) | > 25 µM (inactive) |  | > 25 µM (inactive) | > 25 µM (inactive) | > 25 µM (inactive) | > 25 µM (inactive) | > 25 µM (inactive)
9 | ON/N=C/c1cc2c(cc1Br)OCO2 | > 386 µM (inactive) | 176 µM (inactive) |  | > 386 µM (inactive) | 144 µM (inactive) | > 386 µM (inactive) | > 386 µM (inactive) | > 386 µM (inactive) | > 386 µM (inactive) | > 386 µM (inactive) | > 386 µM (inactive) | 114 µM (inactive) | > 386 µM (inactive) | > 386 µM (inactive) | > 386 µM (inactive) | > 386 µM (inactive) | 329 µM (inactive) | > 386 µM (inactive)
10 | COC(=O)N/N=c1\cc(C(=O)Nc2ccc(C)c(C)c2)oc2cc(O)ccc12 | > 100 µM (inactive) | > 100 µM (inactive) | > 100 µM | > 100 µM (inactive) | > 100 µM (inactive) | > 100 µM (inactive) | > 100 µM (inactive) | > 100 µM (inactive) | > 100 µM (inactive) | > 100 µM (inactive) |  | > 100 µM (inactive) | > 100 µM (inactive) | > 100 µM (inactive) | > 100 µM (inactive) | > 100 µM (inactive) | > 100 µM (inactive) | > 100 µM (inactive)
11 | N/C(=N\O)N/N=C/c1cccs1 | 42.3 µM (inactive) | 23.7 µM (inactive) | 79.1 µM | 28.1 µM (inactive) | > 100 µM (inactive) | 45.1 µM (inactive) | 49.1 µM (inactive) | 57.1 µM (inactive) | > 100 µM (inactive) | 33.7 µM (inactive) |  | > 100 µM (inactive) | > 100 µM (inactive) | 76.7 µM (inactive) | 37.8 µM (inactive) | 59.8 µM (inactive) | > 100 µM (inactive) | 15.8 µM (inactive)
12 | COc1cc(OC)c2c(=O)cc(-c3ccc(OC)c(OC)c3OC)oc2c1 | 83.6 µM (inactive) | > 100 µM (inactive) | > 100 µM | > 100 µM (inactive) | 37 µM (inactive) | > 100 µM (inactive) | > 100 µM (inactive) | > 100 µM (inactive) | > 100 µM (inactive) |  | > 100 µM (inactive) | 57.5 µM (inactive) | 52.2 µM (inactive) | 60.1 µM (inactive) | > 100 µM (inactive) | > 100 µM (inactive) |  | > 100 µM (inactive)
